Earlier results in paper PMC5758054 (Journal of natural products, 2017).

System: murine colorectal cancer lung metasteses
Conditions: ref [36],[37]

**Q.** For `N#C[C@@H]1CCCN1C(=O)CNC12CC3CC(CC(O)(C3)C1)C2` [Vildagliptin], which “in vivo tumor suppressor activity (in words)” value is on record?
**A.** has in vivo tumor suppressor activity
